Source: paper PMC10140010 (Investigational New Drugs, 2023)
Values joined by “and” are separate entries in the source; they are usually repeats but may differ in a detail not shown here. Equal entries are not always repeated.

What was measured:
OATP1B3 = experiment: Uptake substrate investigation in HEK293 cells expressing transporter
OAT1 = experiment: as above; details: ATV 1 μM, no inhibitor, OAT1 pre-test
OAT3 = experiment: as above; details: ATV 1 μM, no inhibitor, OAT3 pre-test
[1] = test system: LU-01-0015 (HIP-ALK) patient derived lung-tumor xenografts; experiment: LU-01-0015 patient-derived xenograft model (tumor volume, body weight); type: in vivo, BALB/c nude mice; details: LU-01-0015 and NCI-H3122 xenograft models, all P < 0.05
Experimental: Female BALB/c nude mice (4–6 weeks old) were provided by Shanghai Sipple-Bikai Laboratory Animal Co., Ltd. and Beijing Vital River Laboratory Animal Technology Co., Ltd. The mice were housed in a specific pathogen-free environment under a 12 h light/dark cycle, and had free access to sterile animal feed and water.
PDX and CDX models were used for in vivo studies. Patient-derived tumors tissues were divided into about 30 mm^3 and transplanted into the right dorsal subcutis. Treatment began when the tumor size reached to 200 mm^3. The mice were randomly assignied into the corresponding dosing groups (9 mice in each group). Drugs were deliverd via daily oral for 4 weeks. Tumor size was measured periodically using a digital caliper (Cal Pro, Sylvac, Switzerland), and tumor volume was calculated as 0.5 × length × width^2. For more detailed information, please refer to Supplementary materials. All procedures and protocols of xenograft models were approved by the Institutional Animal Care and Use Committee of WuXi AppTec.
Patient-derived tumor tissue was segmented into small pieces of approximately 20–30 mm^3 and transplanted subcutaneously into the right back of mice. When the tumor volume reached 150-200 mm^3, the mice were randomly divided into corresponding groups (9 mice in each group, female). Administered by gavage once daily for 4 weeks.

ALK = details: cited from earlier work
BCRP = molecular target: T1, BCRP (Homo sapiens, UniProt Q9UNQ0); experiment: ABC efflux transporter inhibitor test on Caco-2 cells (E3S efflux)
T1 sequence (Q9UNQ0 1-655): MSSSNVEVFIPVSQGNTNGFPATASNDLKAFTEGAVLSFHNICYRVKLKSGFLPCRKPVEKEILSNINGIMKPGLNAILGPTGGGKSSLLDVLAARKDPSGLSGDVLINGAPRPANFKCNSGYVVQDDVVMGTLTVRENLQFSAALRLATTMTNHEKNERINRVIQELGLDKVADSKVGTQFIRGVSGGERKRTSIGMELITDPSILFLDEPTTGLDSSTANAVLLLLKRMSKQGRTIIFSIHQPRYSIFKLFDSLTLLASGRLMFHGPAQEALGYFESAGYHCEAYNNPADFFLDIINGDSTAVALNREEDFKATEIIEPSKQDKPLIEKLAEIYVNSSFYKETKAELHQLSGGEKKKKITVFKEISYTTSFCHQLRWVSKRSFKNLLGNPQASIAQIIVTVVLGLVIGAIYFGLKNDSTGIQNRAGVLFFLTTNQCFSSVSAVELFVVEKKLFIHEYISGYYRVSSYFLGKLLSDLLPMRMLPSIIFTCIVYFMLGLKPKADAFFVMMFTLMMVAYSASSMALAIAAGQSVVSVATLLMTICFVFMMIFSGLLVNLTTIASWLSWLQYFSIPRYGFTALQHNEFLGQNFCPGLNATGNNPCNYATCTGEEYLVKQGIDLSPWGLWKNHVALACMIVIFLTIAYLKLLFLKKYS

MATE1 [2] = molecular target: T2, MATE1 (Homo sapiens, UniProt Q96FL8); experiment: Substrate investigation in HEK293 cells expressing transporter; type: in vitro ADME; parameters: No ESH8G27; host or cells: HEK293; details: MPP 10 μM, no inhibitor, pre-test
T2 sequence (Q96FL8 1-570): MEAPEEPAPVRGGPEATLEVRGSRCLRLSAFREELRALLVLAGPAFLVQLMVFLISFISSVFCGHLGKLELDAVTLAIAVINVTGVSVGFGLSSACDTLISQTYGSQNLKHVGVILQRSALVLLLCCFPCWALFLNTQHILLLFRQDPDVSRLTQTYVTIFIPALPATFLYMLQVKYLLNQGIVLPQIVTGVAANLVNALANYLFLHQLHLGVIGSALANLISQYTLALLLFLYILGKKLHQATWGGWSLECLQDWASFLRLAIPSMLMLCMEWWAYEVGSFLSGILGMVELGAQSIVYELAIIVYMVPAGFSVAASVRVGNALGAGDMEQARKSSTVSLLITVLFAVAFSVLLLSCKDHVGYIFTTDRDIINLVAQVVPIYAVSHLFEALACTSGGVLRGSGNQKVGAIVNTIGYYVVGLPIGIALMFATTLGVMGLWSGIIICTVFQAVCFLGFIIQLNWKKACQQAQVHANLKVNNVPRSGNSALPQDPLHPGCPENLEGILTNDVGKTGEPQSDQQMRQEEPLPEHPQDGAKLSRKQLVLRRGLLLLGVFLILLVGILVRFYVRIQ

OCT2 = molecular target: T3, OCT2 (Homo sapiens, UniProt O15244); experiment: Uptake substrate investigation in HEK293 cells expressing transporter; type: in vitro ADME; details: 20 μM, Suppl. Table 11
T3 construct: No ESH9G27; host or cells: HEK293
T3 sequence (O15244 1-555): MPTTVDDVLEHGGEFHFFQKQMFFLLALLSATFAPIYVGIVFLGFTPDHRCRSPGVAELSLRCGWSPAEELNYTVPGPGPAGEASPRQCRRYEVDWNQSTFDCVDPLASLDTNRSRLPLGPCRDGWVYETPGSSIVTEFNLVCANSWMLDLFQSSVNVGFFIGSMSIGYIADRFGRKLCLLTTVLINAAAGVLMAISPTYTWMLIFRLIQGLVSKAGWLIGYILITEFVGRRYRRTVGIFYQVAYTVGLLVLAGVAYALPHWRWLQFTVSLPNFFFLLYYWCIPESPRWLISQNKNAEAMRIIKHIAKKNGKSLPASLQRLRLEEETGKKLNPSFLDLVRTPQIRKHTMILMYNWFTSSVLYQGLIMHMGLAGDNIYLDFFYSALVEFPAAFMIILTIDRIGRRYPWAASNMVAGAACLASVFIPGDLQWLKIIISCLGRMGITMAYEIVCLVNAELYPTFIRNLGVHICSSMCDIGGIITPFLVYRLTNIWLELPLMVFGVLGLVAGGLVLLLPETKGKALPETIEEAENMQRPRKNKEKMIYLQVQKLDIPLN

MATE1 [3] = molecular target: T2, MATE1; experiment: Uptake inhibitor investigation in HEK293 cells expressing transporter; details: HEK293 cells expressing MATE1, probe MPP, 10 μM
[4] = MOCK293, ATV 1 μM, no inhibitor, OATP1B3 pre-test
[5] = OATP1B1-293 (so in the source), ATV 1 μM, no inhibitor, OATP1B3 pre-test

## CC(C)c1c(C(=O)Nc2ccccc2)c(-c2ccccc2)c(-c2ccc(F)cc2)n1CC[C@@H](O)C[C@@H](O)CC(=O)O [ATV]
OATP1B3; MOCK293 (OATP1B3 set), 1 μM, Suppl. Table 11
  Uptake transport activity, Mean: 2.359 pmol/mg protein/min
OATP1B3; [4]
  Uptake transport activity, Mean: 3.030 pmol/mg protein/min
  Uptake transport activity, Repeat 1 / Repeat 2: 2.810 pmol/mg protein/min and 3.250 pmol/mg protein/min
OATP1B3; [5]
  Uptake transport activity, Mean: 13.60 pmol/mg protein/min
  Uptake transport activity, Repeat 1 / Repeat 2: 14.30 pmol/mg protein/min and 12.90 pmol/mg protein/min
OATP1B3; transporter cells vs MOCK293, ATV 1 μM, no inhibitor, OATP1B3 pre-test
  Uptake transport activity, Net value: 10.6 pmol/mg protein/min
OAT1; MOCK293
  Uptake transport activity, Mean: 3.393 pmol/mg protein/min
  Uptake transport activity, Repeat 1 / Repeat 2: 3.281 pmol/mg protein/min and 3.505 pmol/mg protein/min
OAT1; OATP1B1-293 (so in the source)
  Uptake transport activity, Mean: 31.40 pmol/mg protein/min
  Uptake transport activity, Repeat 1 / Repeat 2: 36.42 pmol/mg protein/min and 26.39 pmol/mg protein/min
OAT1; transporter cells vs MOCK293
  Uptake transport activity, Net value: 28.01 pmol/mg protein/min
OAT3; MOCK293
  Uptake transport activity, Mean: 75.16 pmol/mg protein/min
  Uptake transport activity, Repeat 1 / Repeat 2: 59.57 pmol/mg protein/min and 90.74 pmol/mg protein/min
OAT3; OATP1B1-293 (so in the source)
  Uptake transport activity, Mean: 727.9 pmol/mg protein/min
  Uptake transport activity, Repeat 1 / Repeat 2: 731.6 pmol/mg protein/min and 724.2 pmol/mg protein/min
OAT3; transporter cells vs MOCK293
  Uptake transport activity, Net value: 652.7 pmol/mg protein/min

## Cc1cc(Nc2ncc(Cl)c(Nc3ccccc3S(=O)(=O)C(C)C)n2)c(OC(C)C)cc1C1CCNCC1 [Ceritinib]
[1]
  tumor growth inhibition: able to inhibit tumor growth
ALK; in vitro enzymatic study against ALK, read-out: half-maximal growth inhibition concentration (GI50)
  GI50: 0.15 nM
ALK; in vitro enzymatic study
  fold more potent against ALK than crizotinib: ~ 20 fold

## C[C@]12CC[C@@H]3c4ccc(OS(=O)(=O)O)cc4CC[C@H]3[C@@H]1CCC2=O [E3S, reference compound]
BCRP; E3S 10 µM alone, Caco-2
  Exhaust Ratio Mean: 20.54

## COc1cc2c(cc1OC)CN(CCc1ccc(NC(=O)c3cccc4c(=O)c5cccc(OC)c5[nH]c34)cc1)CC2 [Elacridar, reference compound]
BCRP; human, Caco-2 cells, probe E3S (10 µM), Exhaust inhibition rate (%), substrate E3S 10 µM, inhibitor 10 µM
  inhibition at 10 µM: 91.6%
BCRP; substrate E3S 10 µM, inhibitor 10 µM
  Exhaust inhibition rate (%): 91.7%

## C[n+]1ccc(-c2ccccc2)cc1 [MPP]
MATE1 [2]; MATE1-293
  Uptake transport activity, Mean: 1162.7 pmol/mg protein/min
  Uptake transport activity, Repeat 1 / Repeat 2: 942.2 pmol/mg protein/min and 1383.2 pmol/mg protein/min
MATE1 [2]; MATE1-293 vs MOCK293
  Ratio of uptake transit activity: 6.86
  Uptake transport activity, Net value: 993.3 pmol/mg protein/min
MATE1 [2]; MOCK293
  Uptake transport activity, Mean: 169.4 pmol/mg protein/min
  Uptake transport activity, Repeat 1 / Repeat 2: 163.5 pmol/mg protein/min and 175.3 pmol/mg protein/min

## CN(C)C(=N)N=C(N)N [Metformin]
OCT2; MOCK293 (OCT2 set)
  Uptake transport activity, Mean: 3.503 pmol/mg protein/min
OCT2; OCT2-293
  Uptake transport activity, Mean: 82.72 pmol/mg protein/min
OCT2; OCT2-293 vs MOCK293
  Ratio of uptake transit activity: 23.61
  Uptake transport activity, Net value: 79.21 pmol/mg protein/min

## CCc1nc(N)nc(N)c1-c1ccc(Cl)cc1 [Pyrimethamine]
MATE1 [3]
  inhibition at 2 μM: 123%
